According to patent US7872122B2, “Process for making Biolimus A9” (Chunghwa Chemical Synthesis & Biotech Co., Ltd., priority 2009, dated 2011):

Experiment: Stability of Biolimus A9 at 40° C. with added anti-oxidant BHT
Assay type: physicochemical
From the text: The yield data of different amounts of anti-oxidant as added into Biolimus A9 with respect to time lapse of weeks are summarized in Table 1 as below-mentioned.

Which “Purity (%) of Biolimus A9” value (BHT 0.0% (w/w), 0 week) does the source give for `CCOCCO[C@@H]1CC[C@@H](C[C@@H](C)[C@@H]2CC(=O)[C@H](C)/C=C(\C)[C@@H](O)[C@@H](OC)C(=O)[C@H](C)C[C@H](C)/C=C/C=C/C=C(\C)[C@@H](OC)C[C@@H]3CC[C@@H](C)[C@@](O)(O3)C(=O)C(=O)N3CCCC[C@H]3C(=O)O2)C[C@H]1OC` [Biolimus A9] here?
The value was 99.7%.

And the “Purity (%) of Biolimus A9” value (BHT 0.0% (w/w), 2 weeks)?
The value was 98.2%.

What about the “Purity (%) of Biolimus A9” value (BHT 0.0% (w/w), 4 weeks) of the same compound?
Its value is 88.4%.

And the “Purity (%) of Biolimus A9” value (BHT 0.0% (w/w), 6 weeks)?
Its value is 69.7%.

And the “Purity (%) of Biolimus A9” value (BHT 0.1% (w/w), 0 week)?
The value was 99.7%.

And the “Purity (%) of Biolimus A9” value (BHT 0.1% (w/w), 2 weeks)?
Its value is 99.5%.

What about the “Purity (%) of Biolimus A9” value (BHT 0.1% (w/w), 4 weeks) of the same compound?
The value was 99.5%.

What about the “Purity (%) of Biolimus A9” value (BHT 0.1% (w/w), 6 weeks) of the same compound?
The value was 99.5%.

What about the “Purity (%) of Biolimus A9” value (BHT 0.2% (w/w), 0 week) of the same compound?
Its value is 99.6%.

What about the “Purity (%) of Biolimus A9” value (BHT 0.2% (w/w), 2 weeks) of the same compound?
Its value is 99.6%.

And the “Purity (%) of Biolimus A9” value (BHT 0.2% (w/w), 4 weeks)?
Its value is 99.5%.

And the “Purity (%) of Biolimus A9” value (BHT 0.2% (w/w), 6 weeks)?
Its value is 99.5%.

And the “Purity (%) of Biolimus A9” value (BHT 0.5% (w/w), 0 week)?
Its value is 99.6%.

What about the “Purity (%) of Biolimus A9” value (BHT 0.5% (w/w), 2 weeks) of the same compound?
Its value is 99.5%.

And the “Purity (%) of Biolimus A9” value (BHT 0.5% (w/w), 4 weeks)?
The value was 99.4%.

What about the “Purity (%) of Biolimus A9” value (BHT 0.5% (w/w), 6 weeks) of the same compound?
The value was 99.4%.

And the “Purity (%) of Biolimus A9” value (BHT 1.0% (w/w), 0 week)?
The value was 99.6%.

What about the “Purity (%) of Biolimus A9” value (BHT 1.0% (w/w), 2 weeks) of the same compound?
The value was 99.5%.

What about the “Purity (%) of Biolimus A9” value (BHT 1.0% (w/w), 4 weeks) of the same compound?
The value was 99.4%.

And the “Purity (%) of Biolimus A9” value (BHT 1.0% (w/w), 6 weeks)?
Its value is 99.4%.

What about the “yield after six-week storage” value (BHT added for 0.1%, 0.2, 0.5%, and 1% (w/w), six-week storage) of the same compound?
The value was “more than 99.4%”.
